In patent publication US20150133524A1, “PYRUVATE DEHYROGENASE KINASES AS THERAEUTIC TARGETS FOR CANCER AND ISCHEMIC DISEASES” (THE JOHNS HOPKINS UNIVERSITY, priority 2004, published 2015):
Where two headings read alike, the source gives them in different places.

Assays:
[1] = system: Hif1a−/− MEFs; experiment: Cell proliferation assay (viable cell count) of Hif1a−/− MEFs
[2] = system: PDK1; experiment: Immunoblot of PDK1 protein expression in P493-6 cells; format: cell-based, human; conditions: for PDK1 expression: P493-6 cells after electroporation with 100 nM siRNA, FIG. 4A
[3] = system: P493-6 cells; experiment: Growth curves of P493-6 cells electroporated with siRNA; format: cell-based, human; conditions: 100 nM siRNA electroporated; hypoxia (0.1% O2); versus scrambled control siRNA; FIG. 4B
Procedure: siRNA targeting human PDK1 was designed and purchased from Dharmacon Research Inc (Lafayette, Colo.). 3×10^6 P493-6 cells were electroporated (1500 uF and 240 volts) with 100 nM of PDK1 siRNA (5′-CUACAUGAGUCGCAUUUCAdTdT-3′) (SEQ ID NO: 1). or scrambled control siRNA (5′-CACGCUCGGUCAAAAGGUUdTdT-3′) (SEQ ID NO: 7). in a 4 mm cuvette (BTX) using a Gene Pulser Xcell (Bio-Rad, Hercules, Calif.). The following day, 5×10^5 viable cells were subjected to hypoxic exposure (0.1% O2). At indicated times, viable cells were counted for growth curve, and the cellular proteins were harvested for Western blot analysis.

[4] = system: Hif1a−/− MEFs

Compound: CO/C(=C/C(N)=O)[C@H](C)[C@H](/C=C/c1csc(-c2csc([C@@H](C)/C=C/C=C/C(C)C)n2)n1)OC [myxothiazol]
- toxicity to normoxic and hypoxic Hif1a−/− MEFs ([1]; both normoxic and hypoxic cells): toxic

Compound: [Cl-].[Cl-].[Co+2] [CoCl2]
- PDK1 levels [2]: increased

Compound: 5′-CUACAUGAGUCGCAUUUCAdTdT-3′ (dTdT overhang, complementary strand not cited, chemistry not fully specified) [PDK1 siRNA, siRNA targeting human PDK1, designed and purchased from Dharmacon]
- PDK1 expression [2]: reduced
- growth of P493-6 cells in hypoxia [3]: impaired

Compound: antimycin A
- toxicity to normoxic and hypoxic Hif1a−/− MEFs [4]: toxic

Compound: C=C(C)[C@H]1Cc2c(ccc3c2O[C@@H]2COc4cc(OC)c(OC)cc4[C@@H]2C3=O)O1 [Rotenone, rotenone]
- rescue (growth) of hypoxic Hif1a−/− mouse embryo fibroblasts ([1]; 0.1 μM rotenone, hypoxic (0.5% O2), FIG. 3D): able to rescue
- proliferation of normoxic Hif1a−/− MEFs ([1]; 0.1 μM rotenone, normoxic (20% O2), FIG. 3D): inhibited proliferation

Compound: 5′-CACGCUCGGUCAAAAGGUUdTdT-3′ (dTdT overhang, complementary strand not cited, chemistry not fully specified) [scrambled control siRNA]
- PDK1 expression [2]: did not reduce PDK1 expression
